Data taken from patent US20090247543A1, “GATIFLOXACIN-CONTAINING AQUEOUS LIQUID PREPARATION” (Kyorin Pharmaceutical Co., Ltd., priority 2008, published 2009).
In brackets after ≈: the same amount, converted by molar mass.

System: Enterococcus faecalis (opthalmologic clinical isolated strain A-2-7)
Assay: Minimal inhibitory concentration used as indicator for T>MIC
Type: cell-based

SMILES: COc1c(N2CCNC(C)C2)c(F)cc2c(=O)c(C(=O)O)cn(C3CC3)c12 (racemic) [Gatifloxacin, (±)-1-cyclopropyl-6-fluoro-1,4-dihydro-8-methoxy-7-(3-methyl-1-piperazinyl)-4-oxo-3-quinolinecarboxylic acid]
- MIC: 0.39 µg/mL (≈ 1.04 µM)
